Measured values as given in patent US20070190043A1 (Biofrontera AG, priority 2003, published 2007).

Legend:
HaCaT keratinocytes = test: Proliferation of HaCaT keratinocytes (Cell Titer Viability Assay, luminescence); assay type: cell-based; conditions: 48 hours; for inhibition of proliferation of keratinocytes: comparable to negative control
Procedure: As further control cells were used, which were only incubated in KBM (KBM).
For this purpose 5×10^3 HaCaT keratinocytes were seeded into 60 wells of a 96 well-plate in 200 μl KBM/10% FCS each and incubated for 24 hours at 37° C. […] At the end of the second incubation period the medium was removed and the proliferation of cells was determined with the Cell Titer Viability Assay of Promega (#G7571/G7572) according to the manufacturer's instructions. A lowered luminescence with respect to the positive control (in RLU relative luminescence units) correlated with a lowered proliferation. Values obtained from the wells without cells were subtracted from the mean of the 6 wells with cells as background value. At least 4 independent experiments were carried out.

[1] = administration of up to 100 mg, therapy of lateral sclerosis; cited from earlier work

## Nc1nc2ccc(OC(F)(F)F)cc2s1 [Riluzole, 2-amino-6-(trifluoromethoxy)-benzothiazole]
HaCaT keratinocytes; 100 μmol/l Riluzole
  inhibition of proliferation of keratinocytes: complete inhibition of proliferation
HaCaT keratinocytes; 250 μmol/l Riluzole
  inhibition of proliferation of keratinocytes: complete inhibition of proliferation
HaCaT keratinocytes; HaCaT keratinocytes, versus control KBM+10% FCS
  concentration at which an inhibition of the proliferation was already observed: 1 µmol/L
[1]
  adverse effect anestenia: 18 % of the treated patients
  adverse effect nausea: 16 % of all treated patients
